The NIST ThermoML archive (doi:10.1021/je7000182)

Assay: xn = mol fraction of the nth substance listed
Details: for mass density: 101 kPa, Liquid

CC(C)=O [acetone] + Cc1ccccc1
Details	mass density [kg/m3]	surface tension liquid-gas [mN/m]
288.15 K, x1 = 0.1	866.62	28.54
288.15 K, x1 = 0.2	861.43	27.86
288.15 K, x1 = 0.3	855.6	27.32
288.15 K, x1 = 0.4	849.5	26.98
288.15 K, x1 = 0.5	842.16	26.58
288.15 K, x1 = 0.6	834.94	25.91
288.15 K, x1 = 0.6999	826.67	25.22
288.15 K, x1 = 0.8	817.43	24.68
288.15 K, x1 = 0.9	807.56	24.24
288.15 K, x1 = 1	795.65	24.34
293.15 K, x1 = 0.1	861.94	–
293.15 K, x1 = 0.2	856.62	–
293.15 K, x1 = 0.3	850.69	–
293.15 K, x1 = 0.4	844.49	–
293.15 K, x1 = 0.5	837.08	–
293.15 K, x1 = 0.6	829.76	–
293.15 K, x1 = 0.6999	821.37	–
293.15 K, x1 = 0.8	812.03	–
293.15 K, x1 = 0.9	802.05	–
293.15 K, x1 = 1	790.04	–
298.15 K, x1 = 0.1	857.19	27.42
298.15 K, x1 = 0.2	851.77	26.78
298.15 K, x1 = 0.3	845.76	26.27
298.15 K, x1 = 0.4	839.43	25.87
298.15 K, x1 = 0.5	831.96	25.26
298.15 K, x1 = 0.6	824.52	24.69
298.15 K, x1 = 0.6999	816.05	24.14
298.15 K, x1 = 0.8	806.58	23.46
298.15 K, x1 = 0.9	796.47	23.01
298.15 K, x1 = 1	784.33	23.02
303.15 K, x1 = 0.1	852.43	–
303.15 K, x1 = 0.2	846.92	–
303.15 K, x1 = 0.3	840.8	–
303.15 K, x1 = 0.4	834.37	–
303.15 K, x1 = 0.5	826.83	–
303.15 K, x1 = 0.6	819.3	–
303.15 K, x1 = 0.6999	810.71	–
303.15 K, x1 = 0.8	801.09	–
303.15 K, x1 = 0.9	790.88	–
303.15 K, x1 = 1	778.57	–
308.15 K, x1 = 0.1	847.66	26.25
308.15 K, x1 = 0.2	842.06	25.78
308.15 K, x1 = 0.3	835.83	25.21
308.15 K, x1 = 0.4	829.3	24.88
308.15 K, x1 = 0.5	821.64	24.2
308.15 K, x1 = 0.6	814	23.59
308.15 K, x1 = 0.6999	805.29	22.92
308.15 K, x1 = 0.8	795.56	22.51
308.15 K, x1 = 0.9	785.21	21.83
308.15 K, x1 = 1	772.76	21.72
313.15 K, x1 = 0.1	842.86	–
313.15 K, x1 = 0.2	837.17	–
313.15 K, x1 = 0.3	830.83	–
313.15 K, x1 = 0.4	824.2	–
313.15 K, x1 = 0.5	816.43	–
313.15 K, x1 = 0.6	808.68	–
313.15 K, x1 = 0.6999	799.88	–
313.15 K, x1 = 0.8	790.01	–
313.15 K, x1 = 0.9	779.49	–
313.15 K, x1 = 1	766.91	–
318.15 K, x1 = 0.1	838.04	24.97
318.15 K, x1 = 0.2	832.23	24.75
318.15 K, x1 = 0.3	825.82	24.09
318.15 K, x1 = 0.4	819.06	23.74
318.15 K, x1 = 0.5	811.19	22.82
318.15 K, x1 = 0.6	803.32	22.67
318.15 K, x1 = 0.6999	794.39	21.7
318.15 K, x1 = 0.8	784.39	21.34
318.15 K, x1 = 0.9	773.74	20.48
318.15 K, x1 = 1	760.99	20.38
323.15 K, x1 = 0.1	833.22	–
323.15 K, x1 = 0.2	827.29	–
323.15 K, x1 = 0.3	820.75	–
323.15 K, x1 = 0.4	813.89	–
323.15 K, x1 = 0.5	805.91	–
323.15 K, x1 = 0.6	797.91	–
323.15 K, x1 = 0.6999	788.88	–
323.15 K, x1 = 0.8	778.74	–
323.15 K, x1 = 0.9	767.94	–
323.15 K, x1 = 1	755.02	–
328.15 K, x1 = 0.1	828.34	23.63
328.15 K, x1 = 0.2	822.32	23.48
328.15 K, x1 = 0.3	815.67	23.04
328.15 K, x1 = 0.4	808.7	22.7
328.15 K, x1 = 0.5	800.59	21.99
328.15 K, x1 = 0.6	792.48	21.06
328.15 K, x1 = 0.6999	783.31	20.65
328.15 K, x1 = 0.8	773.01	19.95
328.15 K, x1 = 0.9	762.08	19.32
328.15 K, x1 = 1	748.98	19.15

CC(C)=O [acetone] + O
surface tension liquid-gas [mN/m], Pendant drop shape
Details	288.15 K	298.15 K	308.15 K	318.15 K	328.15 K
x1 = 0.0099	62.59	61.04	59.26	58.11	57.74
x1 = 0.05	47.85	46.14	44.78	43.74	42.86
x1 = 0.0999	40.32	39.07	37.88	36.87	35.71
x1 = 0.15	35.72	34.41	33.13	32.02	30.76
x1 = 0.1999	33.71	32.21	30.74	29.4	28.31
x1 = 0.2999	30.6	29.35	28.08	26.98	25.68
x1 = 0.4	29.19	27.98	26.78	25.47	24.23
x1 = 0.4999	28.24	27.04	25.82	24.53	23.28
x1 = 0.5999	27.29	26.03	24.81	23.63	22.26
x1 = 0.6999	26.71	25.44	24.25	22.94	21.73
x1 = 0.7999	25.78	24.51	23.2	22.02	20.9
x1 = 0.8999	25.06	23.8	22.56	21.19	20.19
x1 = 1	24.34	23.02	21.72	20.38	19.15

mass density [kg/m3]
Details	288.15 K	293.15 K	298.15 K	303.15 K	308.15 K	313.15 K	318.15 K	323.15 K	328.15 K
x1 = 0.0099	994.9	993.87	992.55	991	989.16	987.26	985.07	982.76	980.29
x1 = 0.05	981.27	979.34	977.21	974.89	972.41	969.77	966.73	963.1	959.94
x1 = 0.1	965.81	962.9	959.83	956.64	953.33	949.91	946.37	942.68	938.87
x1 = 0.15	950.41	946.79	943.05	939.23	935.32	931.31	927.21	923	918.72
x1 = 0.2	935.61	931.54	927.37	923.1	918.78	914.37	909.89	905.19	900.64
x1 = 0.3	907.7	903.09	898.35	893.54	888.68	883.75	878.76	873.7	868.56
x1 = 0.4	884.77	879.81	874.8	869.68	864.53	859.33	854.06	848.74	843.31
x1 = 0.5	863.71	858.56	853.35	848.07	842.72	837.31	831.85	826.32	820.73
x1 = 0.6	845.83	840.53	835.15	829.71	824.22	818.66	813.05	807.35	801.6
x1 = 0.7	830.7	825.3	819.8	814.25	808.63	802.96	797.22	791.42	785.55
x1 = 0.8	818.04	812.56	806.97	801.32	795.62	789.84	784.05	778.16	772.2
x1 = 0.9	805.86	800.27	794.6	788.88	783.11	777.29	771.4	765.46	759.81
x1 = 1	795.65	790.04	784.33	778.57	772.76	766.91	760.99	755.02	748.98
